Measured values from publication PMC5429621 (Scientific Reports, 2017).

What was measured:
hP2X1R = target: T1, hP2X1R (Homo sapiens, UniProt P51575); assay: two-electrode voltage clamp, Xenopus oocytes; type: cell-based
T1 construct: expressed in transfected cells; host or cells: Xenopus laevis oocytes (cRNA injected)
T1 sequence (P51575 1-399): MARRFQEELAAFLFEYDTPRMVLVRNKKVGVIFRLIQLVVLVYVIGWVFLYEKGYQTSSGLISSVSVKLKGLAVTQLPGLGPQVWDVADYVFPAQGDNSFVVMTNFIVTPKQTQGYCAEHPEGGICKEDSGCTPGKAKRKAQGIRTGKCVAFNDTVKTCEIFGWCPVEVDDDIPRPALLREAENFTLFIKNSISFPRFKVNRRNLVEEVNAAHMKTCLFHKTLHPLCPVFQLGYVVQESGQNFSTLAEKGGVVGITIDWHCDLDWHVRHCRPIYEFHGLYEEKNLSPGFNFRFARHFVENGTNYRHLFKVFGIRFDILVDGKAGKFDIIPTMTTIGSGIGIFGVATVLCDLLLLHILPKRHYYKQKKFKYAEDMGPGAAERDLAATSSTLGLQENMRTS
Source text: (§1) The hP2X1R was a gift from Dr Lin-Hua Jiang (University of Leeds, UK) and the hP2X1R cDNA has been described previously. Chimeras were generated by megaprimer-mediated domain swapping. In addition to chimeras, point mutations, deletions and insertions were made using the QuikChange (Stratagene) or Q5 (New England Bioscience) mutagenesis kits. The production of the correct mutations and absence of coding errors was verified by DNA sequencing (Automated ABI Sequencing Service, University of Leicester, UK).
(§2) P2XR constructs were transcribed to produce sense-strand cRNA (mMessage mMachine, Ambion, Austin, TX). Manually defoliculated stage V Xenopus laevis oocytes were injected with 50 nl (50 ng) of cRNA using an Inject + Matic microinjector (J.A. Gaby, InjectMatic, Geneva, Switzerland) and stored at 16 °C in ND96 buffer (in mM, NaCl 96, KCl 2, CaCl2 1.8, MgCl2 1, sodium pyruvate 5, HEPES 5 (pH 7.6) supplemented with 50 µg/ml gentamycin and 50 µg/ml tetracycline). For electrophysiological recordings (3–7 days post-injection) oocytes were bathed in divalent free ND96 buffer (in mM, NaCl 96, KCl 2, sodium pyruvate 5, HEPES 5 and 0.1 flufenamic acid, pH 7.6).
Two-electrode voltage clamp recordings were carried out using a GeneClamp 500B amplifier with a Digidata 1322 A analog to digital convertor and pCLAMP 8.2 acquisition software (Molecular Devices, Menolo Park, CA) at a holding potential of −60 mV. ATP (sodium salt, Sigma) was applied via a U-tube perfusion system for 3 s at 3–5 minute intervals to allow reproducible responses to be recorded. For determination of antagonist sensitivity AZ10606120 (Tocris) was bath perfused as well as co-applied with ATP through the U-tube. […]
Concentration response curves were normalized to the maximal response and fitted with the Hill equation (variable slope) with GraphPad Prism 6 (Graphpad software, San Diego, CA). […] Any significant differences were calculated by one-way analysis of variance, followed by Bonferroni’s test (using GraphPad Prism 6). […]

[1] = target: T2, hP2X7-2Nβ/P2X1 chimera 81–94 (Homo sapiens, UniProt Q99572, F88W/H85P/I21V/K81P/K82G/M24R/N16P/N25R/Q22R/R20V/S23N/S86Q/T19I/T90V/T94V/V84G/Y26L); assay: two-electrode voltage clamp, Xenopus oocytes; type: cell-based; settings: 81–94 chimera
T2 construct: expressed in transfected cells; host or cells: Xenopus laevis oocytes (cRNA injected)
T2 sequence (Q99572 1-595 N16P/T19I/R20V/I21V/Q22R/S23N/M24R/N25R/Y26L/K81P/K82G/V84G/H85P/S86Q/F88W/T90V/T94V): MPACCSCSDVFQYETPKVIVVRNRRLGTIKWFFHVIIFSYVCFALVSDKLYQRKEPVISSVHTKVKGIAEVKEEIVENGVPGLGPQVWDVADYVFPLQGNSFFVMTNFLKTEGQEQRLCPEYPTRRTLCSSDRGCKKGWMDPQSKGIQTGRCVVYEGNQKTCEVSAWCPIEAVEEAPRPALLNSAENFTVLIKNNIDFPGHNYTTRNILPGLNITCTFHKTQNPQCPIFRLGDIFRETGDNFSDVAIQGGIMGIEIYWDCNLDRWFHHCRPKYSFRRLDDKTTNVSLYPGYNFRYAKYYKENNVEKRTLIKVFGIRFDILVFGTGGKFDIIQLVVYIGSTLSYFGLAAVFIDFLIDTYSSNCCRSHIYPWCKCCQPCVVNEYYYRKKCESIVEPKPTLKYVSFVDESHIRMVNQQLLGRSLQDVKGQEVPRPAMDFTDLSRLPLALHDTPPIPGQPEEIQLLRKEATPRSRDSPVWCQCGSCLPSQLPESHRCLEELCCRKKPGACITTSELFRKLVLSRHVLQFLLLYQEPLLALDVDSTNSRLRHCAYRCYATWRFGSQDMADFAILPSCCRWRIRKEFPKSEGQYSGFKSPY
Source text: as §1, §2
ATP (sodium salt, Sigma) was applied via a U-tube perfusion system for 3 s at 3–5 minute intervals to allow reproducible responses to be recorded. […] To standardize for any change in ATP sensitivity at mutant receptors antagonists were co-applied with an EC90 concentration of ATP.
Concentration response curves were normalized to the maximal response and fitted with the Hill equation (variable slope) with GraphPad Prism 6 (Graphpad software, San Diego, CA). […] Individual concentration response curves were generated for individual experiments and statistical analysis was carried out on the data generated. In the figures the inhibition curves are fitted to the mean normalized data. Any significant differences were calculated by one-way analysis of variance, followed by Bonferroni’s test (using GraphPad Prism 6). Data are shown as mean ± SEM.

SMILES	AZ10606120 pIC50 (hP2X1R; P2X1, EC90 ATP)	effect of AZ10606120 at P2X1R (hP2X1R; at 10 μM)	peak current to ATP, % of the control response ([1]; in the presence of 3 µM AZ10606120) [%]	Peak amplitude (hP2X1R; P2X1, maximal ATP) [μA]	Peak amplitude ([1]; maximal ATP) [μA]
Cl.Cl.O=C(CC12CC3CC(CC(C3)C1)C2)Nc1cccc2nc(NCCNCCO)ccc12 [AZ10606120, N-[2-[[2-[(2-Hydroxyethyl)amino]ethyl]amino]-5-quinolinyl]-2-tricyclo[3.3.1.13,7]dec-1-ylacetamide dihydrochloride]	insensitive	ineffective	53.6 ± 2.6		
Nc1ncnc2c1ncn2[C@@H]1O[C@H](COP(=O)(O)OP(=O)(O)OP(=O)(O)O)[C@@H](O)[C@H]1O [ATP]				7.90 ± 1.08	0.76 ± 0.13
